Measurements reported in ChEMBL document CHEMBL3745631, “Discovery of highly potent and selective Bruton's tyrosine kinase inhibitors: Pyridazinone analogs with improved metabolic stability” (Bioorg Med Chem Lett, 2016).

What was measured:
[1] = molecular target: Receptor-interacting serine/threonine-protein kinase 2 (Homo sapiens) (UniProt O43353); assay: Inhibition of RIPK2 (unknown origin) at 1 uM
[2] = molecular target: Protein kinase C delta type (Homo sapiens) (UniProt Q05655); assay: Inhibition of PKCdelta (unknown origin) at 1 uM
[3] = molecular target: Mitogen-activated protein kinase 12 (Homo sapiens) (UniProt P53778); assay: Inhibition of p38 gamma (unknown origin) at 1 uM
[4] = molecular target: Non-receptor tyrosine-protein kinase TYK2 (Homo sapiens) (UniProt P29597); assay: Inhibition of TYK2 (unknown origin) at 1 uM
Chain of Non-receptor tyrosine-protein kinase TYK2 (Homo sapiens) (P29597 whole entry): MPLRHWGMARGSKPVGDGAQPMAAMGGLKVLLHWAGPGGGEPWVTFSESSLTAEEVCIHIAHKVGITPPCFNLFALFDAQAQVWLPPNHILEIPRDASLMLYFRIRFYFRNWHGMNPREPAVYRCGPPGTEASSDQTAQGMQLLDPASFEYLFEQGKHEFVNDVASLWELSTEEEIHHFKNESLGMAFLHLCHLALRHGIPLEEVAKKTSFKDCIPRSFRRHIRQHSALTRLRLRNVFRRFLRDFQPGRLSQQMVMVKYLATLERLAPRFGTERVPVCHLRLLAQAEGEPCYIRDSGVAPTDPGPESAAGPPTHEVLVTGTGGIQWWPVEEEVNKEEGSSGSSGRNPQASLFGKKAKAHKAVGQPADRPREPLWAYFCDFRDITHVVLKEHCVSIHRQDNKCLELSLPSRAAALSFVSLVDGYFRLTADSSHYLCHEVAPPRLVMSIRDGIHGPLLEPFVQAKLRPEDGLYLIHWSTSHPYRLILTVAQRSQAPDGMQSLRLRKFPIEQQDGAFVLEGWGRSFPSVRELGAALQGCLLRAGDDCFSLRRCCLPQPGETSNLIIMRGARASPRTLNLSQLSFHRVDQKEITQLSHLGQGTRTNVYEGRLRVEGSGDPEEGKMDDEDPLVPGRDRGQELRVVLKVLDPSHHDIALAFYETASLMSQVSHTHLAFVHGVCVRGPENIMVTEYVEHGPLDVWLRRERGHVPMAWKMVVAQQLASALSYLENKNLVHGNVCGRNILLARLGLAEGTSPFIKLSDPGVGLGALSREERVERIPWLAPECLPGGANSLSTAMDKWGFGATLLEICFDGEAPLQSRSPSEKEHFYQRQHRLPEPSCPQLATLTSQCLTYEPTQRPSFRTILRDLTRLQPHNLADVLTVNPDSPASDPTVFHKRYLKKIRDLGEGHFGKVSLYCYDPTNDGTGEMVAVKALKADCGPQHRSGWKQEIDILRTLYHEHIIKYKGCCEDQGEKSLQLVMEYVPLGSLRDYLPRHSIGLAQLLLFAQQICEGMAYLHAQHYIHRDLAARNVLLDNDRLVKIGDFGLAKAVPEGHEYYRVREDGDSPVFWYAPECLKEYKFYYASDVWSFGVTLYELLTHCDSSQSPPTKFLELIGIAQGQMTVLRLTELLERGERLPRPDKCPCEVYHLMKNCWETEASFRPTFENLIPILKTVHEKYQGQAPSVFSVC

[5] = molecular target: 5'-AMP-activated protein kinase catalytic subunit alpha-1 (Homo sapiens) (UniProt Q13131); assay: Inhibition of PRKAA1 (unknown origin) at 1 uM
[6] = molecular target: Epithelial discoidin domain-containing receptor 1 (Homo sapiens) (UniProt Q08345); assay: Inhibition of DDR1 (unknown origin) at 1 uM
Chain of Epithelial discoidin domain-containing receptor 1 (Homo sapiens) (Q08345 whole entry, the tested form may be a part): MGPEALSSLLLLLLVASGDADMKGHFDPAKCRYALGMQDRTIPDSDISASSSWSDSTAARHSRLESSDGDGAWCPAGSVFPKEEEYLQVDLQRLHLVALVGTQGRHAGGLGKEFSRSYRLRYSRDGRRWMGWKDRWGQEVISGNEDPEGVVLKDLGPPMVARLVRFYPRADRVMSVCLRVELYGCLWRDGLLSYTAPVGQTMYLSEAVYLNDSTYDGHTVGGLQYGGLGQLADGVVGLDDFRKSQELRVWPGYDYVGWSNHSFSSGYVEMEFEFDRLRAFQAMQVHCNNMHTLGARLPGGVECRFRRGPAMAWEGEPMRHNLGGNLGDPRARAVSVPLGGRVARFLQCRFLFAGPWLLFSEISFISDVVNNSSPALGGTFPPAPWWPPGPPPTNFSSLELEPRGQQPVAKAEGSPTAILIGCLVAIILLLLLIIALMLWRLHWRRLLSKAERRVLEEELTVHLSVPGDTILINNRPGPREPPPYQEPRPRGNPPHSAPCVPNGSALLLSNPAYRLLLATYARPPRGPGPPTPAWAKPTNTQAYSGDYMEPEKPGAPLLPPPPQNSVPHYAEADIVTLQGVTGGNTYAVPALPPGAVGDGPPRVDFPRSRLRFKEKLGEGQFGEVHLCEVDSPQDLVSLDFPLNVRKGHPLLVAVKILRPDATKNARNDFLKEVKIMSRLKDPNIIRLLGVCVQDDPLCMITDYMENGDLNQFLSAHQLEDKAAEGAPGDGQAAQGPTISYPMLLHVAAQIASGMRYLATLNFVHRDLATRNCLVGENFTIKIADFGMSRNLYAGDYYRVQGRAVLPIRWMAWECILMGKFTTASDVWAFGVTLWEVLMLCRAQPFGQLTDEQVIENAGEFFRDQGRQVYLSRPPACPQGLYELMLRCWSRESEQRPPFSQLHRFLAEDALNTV

[7] = molecular target: Mitogen-activated protein kinase kinase kinase 8 (Homo sapiens) (UniProt P41279); assay: Inhibition of Cot (unknown origin) at 1 uM
[8] = molecular target: Glycogen synthase kinase-3 alpha (Homo sapiens) (UniProt P49840); assay: Inhibition of GSK3 alpha (unknown origin) at 1 uM
Chain of Glycogen synthase kinase-3 alpha (Homo sapiens) (P49840 2-483 limits assumed): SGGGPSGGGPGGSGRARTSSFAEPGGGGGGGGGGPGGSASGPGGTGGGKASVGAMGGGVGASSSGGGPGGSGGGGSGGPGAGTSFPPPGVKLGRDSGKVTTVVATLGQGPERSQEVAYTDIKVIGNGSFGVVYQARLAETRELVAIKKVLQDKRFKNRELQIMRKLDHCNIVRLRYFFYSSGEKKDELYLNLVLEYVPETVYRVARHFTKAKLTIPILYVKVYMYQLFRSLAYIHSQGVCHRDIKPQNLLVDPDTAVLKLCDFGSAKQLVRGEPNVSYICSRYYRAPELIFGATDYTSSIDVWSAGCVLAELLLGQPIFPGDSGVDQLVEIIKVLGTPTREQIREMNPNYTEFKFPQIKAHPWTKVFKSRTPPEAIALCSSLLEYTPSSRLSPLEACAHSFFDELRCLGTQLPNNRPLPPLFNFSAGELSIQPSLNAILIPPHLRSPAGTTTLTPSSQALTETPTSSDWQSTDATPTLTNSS

[9] = molecular target: Dual specificity tyrosine-phosphorylation-regulated kinase 4 (Homo sapiens) (UniProt Q9NR20); assay: Inhibition of DYRK4 (unknown origin) at 1 uM
Chain of Dual specificity tyrosine-phosphorylation-regulated kinase 4 (Homo sapiens) (Q9NR20 whole entry, canonical isoform): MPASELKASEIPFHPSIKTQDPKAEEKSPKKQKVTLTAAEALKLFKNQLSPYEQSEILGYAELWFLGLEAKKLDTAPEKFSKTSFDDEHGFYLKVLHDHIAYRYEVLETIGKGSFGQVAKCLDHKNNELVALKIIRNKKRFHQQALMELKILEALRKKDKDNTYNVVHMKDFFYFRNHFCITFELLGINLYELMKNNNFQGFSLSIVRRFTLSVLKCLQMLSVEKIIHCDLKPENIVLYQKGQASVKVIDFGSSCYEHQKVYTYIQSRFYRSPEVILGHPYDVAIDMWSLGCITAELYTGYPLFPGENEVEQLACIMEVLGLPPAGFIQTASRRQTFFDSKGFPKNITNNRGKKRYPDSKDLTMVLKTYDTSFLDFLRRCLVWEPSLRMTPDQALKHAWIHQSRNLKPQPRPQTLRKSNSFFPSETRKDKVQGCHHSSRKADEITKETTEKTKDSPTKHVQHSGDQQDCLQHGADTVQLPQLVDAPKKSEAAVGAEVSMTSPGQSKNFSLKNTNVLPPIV

[10] = molecular target: Casein kinase I isoform gamma-1 (Homo sapiens) (UniProt Q9HCP0); assay: Inhibition of CK1 gamma1 (unknown origin) at 1 uM
[11] = molecular target: Tyrosine-protein kinase ABL1 (Homo sapiens) (UniProt P00519); assay: Inhibition of Abl (unknown origin) at 1 uM
Chain of Tyrosine-protein kinase ABL1 (Homo sapiens) (P00519 whole entry): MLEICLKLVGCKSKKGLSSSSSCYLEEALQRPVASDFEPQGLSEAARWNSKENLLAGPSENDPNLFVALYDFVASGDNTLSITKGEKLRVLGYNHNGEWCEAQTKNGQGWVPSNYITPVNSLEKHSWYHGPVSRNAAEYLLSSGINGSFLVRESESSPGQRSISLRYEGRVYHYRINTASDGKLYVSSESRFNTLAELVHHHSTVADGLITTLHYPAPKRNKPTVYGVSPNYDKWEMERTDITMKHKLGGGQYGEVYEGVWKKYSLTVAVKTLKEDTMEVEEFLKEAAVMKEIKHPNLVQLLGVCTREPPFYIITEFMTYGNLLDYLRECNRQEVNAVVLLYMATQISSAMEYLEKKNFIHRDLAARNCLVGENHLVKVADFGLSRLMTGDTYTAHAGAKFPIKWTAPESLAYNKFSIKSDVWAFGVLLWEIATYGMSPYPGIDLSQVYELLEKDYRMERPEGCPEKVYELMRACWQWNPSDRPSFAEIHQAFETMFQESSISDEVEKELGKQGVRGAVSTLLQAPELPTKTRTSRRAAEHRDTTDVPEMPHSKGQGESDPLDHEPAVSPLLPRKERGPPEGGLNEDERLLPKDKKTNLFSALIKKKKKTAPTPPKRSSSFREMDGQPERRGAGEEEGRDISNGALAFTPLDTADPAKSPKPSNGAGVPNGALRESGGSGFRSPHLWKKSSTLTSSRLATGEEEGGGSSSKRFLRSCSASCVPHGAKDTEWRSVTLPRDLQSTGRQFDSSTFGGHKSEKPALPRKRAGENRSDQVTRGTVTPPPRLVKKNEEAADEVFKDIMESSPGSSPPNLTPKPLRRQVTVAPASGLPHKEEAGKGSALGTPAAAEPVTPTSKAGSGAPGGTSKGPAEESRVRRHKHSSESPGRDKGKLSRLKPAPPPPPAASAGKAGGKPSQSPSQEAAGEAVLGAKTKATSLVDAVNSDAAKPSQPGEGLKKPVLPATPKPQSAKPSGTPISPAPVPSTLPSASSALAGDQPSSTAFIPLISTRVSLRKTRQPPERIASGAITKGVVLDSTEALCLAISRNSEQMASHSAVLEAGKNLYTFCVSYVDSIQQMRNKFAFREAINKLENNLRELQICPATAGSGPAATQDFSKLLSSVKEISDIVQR

Chain of Receptor-interacting serine/threonine-protein kinase 2 (Homo sapiens) (O43353 whole entry): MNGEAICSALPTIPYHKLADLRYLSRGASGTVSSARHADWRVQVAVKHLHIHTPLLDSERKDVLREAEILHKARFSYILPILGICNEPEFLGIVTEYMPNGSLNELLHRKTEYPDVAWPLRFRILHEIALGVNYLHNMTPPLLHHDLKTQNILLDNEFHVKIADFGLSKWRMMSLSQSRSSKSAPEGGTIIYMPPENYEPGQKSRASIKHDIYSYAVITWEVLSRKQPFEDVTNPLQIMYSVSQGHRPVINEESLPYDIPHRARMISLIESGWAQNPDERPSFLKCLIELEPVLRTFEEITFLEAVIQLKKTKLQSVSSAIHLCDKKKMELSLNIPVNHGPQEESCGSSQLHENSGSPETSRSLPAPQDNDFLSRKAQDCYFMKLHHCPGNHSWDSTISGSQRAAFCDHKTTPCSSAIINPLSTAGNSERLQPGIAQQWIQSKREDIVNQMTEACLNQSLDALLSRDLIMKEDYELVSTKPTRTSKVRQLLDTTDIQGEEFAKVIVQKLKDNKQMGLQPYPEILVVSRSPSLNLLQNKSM

inhibition [1]: -0.4%
inhibition [2]: -8%
inhibition [3]: 6.5%
inhibition [4]: 4.3%
inhibition [5]: -2.2%
inhibition [6]: 0.8%
inhibition [7]: 20.1%
inhibition [8]: 7.5%
inhibition [9]: -1.1%
inhibition [10]: 6.2%
inhibition [11]: 11.3%
SMILES: Cc1c(-c2cc(Nc3cc4n(n3)CCN(C)C4)c(=O)[nH]n2)ccc(F)c1NC(=O)c1cc2ccccc2s1
